Here are results for eight compounds from patent publication EP1042468B1.

Several values for one entry are separate records, joined by “and”; a condition that tells them apart may be missing. Equal entries are not always repeated. Where two headings read alike, the source gives them in different places.

The target of test [1] is T1, human α1H containing calcium channels expressed in HEK293 cells (Homo sapiens, UniProt O95180).
T1 construct: expressed in transfected cells; host or cells: HEK293 (transient, calcium phosphate; pCMVCD4 co-transfected as marker)
Briefly: Whole-cell patch clamp of HEK293 cells transiently expressing the α1H subunit. It counts as cell-based.

Test [2] deals with T2, human α1H channels expressed in Xenopus oöcytes (Homo sapiens, UniProt O95180).
T2 construct: Construction of a full-length α1H-1-encoding DNA clone; expressed in transfected cells; host or cells: Xenopus laevis oöcytes injected with in vitro transcripts
It is filed as cell-based. To be noted: for IC50: Ba^2+ currents (15 mM Ba^2+).

The test system of test [3] is T-type current in hippocampal neurons. To be noted: 300 µM; cited from earlier work.
Test [4] deals with T-type current in neuroblastoma cells. To be noted: cited from earlier work.
The target in test [5] is human neuronal calcium channel α1D and α2 subunits (Homo sapiens, UniProt Q01668). Briefly: Two-electrode voltage clamp of oöcytes injected with α1D and α2 transcripts. To be noted: holding potential of -90 mV. For orientation: Two-electrode voltage clamp holds a large cell at a set potential and records current.
Test [6] has as its system human neuronal calcium channel α2 and β1 subunits. Briefly: Two-electrode voltage clamp of oöcytes injected with α2 and β1 transcripts. To be noted: n = 11.
Setting [7] is: Xenopus oöcytes, concentration-inhibition curve of Ba^2+ currents.

T2 sequence (O95180 whole entry): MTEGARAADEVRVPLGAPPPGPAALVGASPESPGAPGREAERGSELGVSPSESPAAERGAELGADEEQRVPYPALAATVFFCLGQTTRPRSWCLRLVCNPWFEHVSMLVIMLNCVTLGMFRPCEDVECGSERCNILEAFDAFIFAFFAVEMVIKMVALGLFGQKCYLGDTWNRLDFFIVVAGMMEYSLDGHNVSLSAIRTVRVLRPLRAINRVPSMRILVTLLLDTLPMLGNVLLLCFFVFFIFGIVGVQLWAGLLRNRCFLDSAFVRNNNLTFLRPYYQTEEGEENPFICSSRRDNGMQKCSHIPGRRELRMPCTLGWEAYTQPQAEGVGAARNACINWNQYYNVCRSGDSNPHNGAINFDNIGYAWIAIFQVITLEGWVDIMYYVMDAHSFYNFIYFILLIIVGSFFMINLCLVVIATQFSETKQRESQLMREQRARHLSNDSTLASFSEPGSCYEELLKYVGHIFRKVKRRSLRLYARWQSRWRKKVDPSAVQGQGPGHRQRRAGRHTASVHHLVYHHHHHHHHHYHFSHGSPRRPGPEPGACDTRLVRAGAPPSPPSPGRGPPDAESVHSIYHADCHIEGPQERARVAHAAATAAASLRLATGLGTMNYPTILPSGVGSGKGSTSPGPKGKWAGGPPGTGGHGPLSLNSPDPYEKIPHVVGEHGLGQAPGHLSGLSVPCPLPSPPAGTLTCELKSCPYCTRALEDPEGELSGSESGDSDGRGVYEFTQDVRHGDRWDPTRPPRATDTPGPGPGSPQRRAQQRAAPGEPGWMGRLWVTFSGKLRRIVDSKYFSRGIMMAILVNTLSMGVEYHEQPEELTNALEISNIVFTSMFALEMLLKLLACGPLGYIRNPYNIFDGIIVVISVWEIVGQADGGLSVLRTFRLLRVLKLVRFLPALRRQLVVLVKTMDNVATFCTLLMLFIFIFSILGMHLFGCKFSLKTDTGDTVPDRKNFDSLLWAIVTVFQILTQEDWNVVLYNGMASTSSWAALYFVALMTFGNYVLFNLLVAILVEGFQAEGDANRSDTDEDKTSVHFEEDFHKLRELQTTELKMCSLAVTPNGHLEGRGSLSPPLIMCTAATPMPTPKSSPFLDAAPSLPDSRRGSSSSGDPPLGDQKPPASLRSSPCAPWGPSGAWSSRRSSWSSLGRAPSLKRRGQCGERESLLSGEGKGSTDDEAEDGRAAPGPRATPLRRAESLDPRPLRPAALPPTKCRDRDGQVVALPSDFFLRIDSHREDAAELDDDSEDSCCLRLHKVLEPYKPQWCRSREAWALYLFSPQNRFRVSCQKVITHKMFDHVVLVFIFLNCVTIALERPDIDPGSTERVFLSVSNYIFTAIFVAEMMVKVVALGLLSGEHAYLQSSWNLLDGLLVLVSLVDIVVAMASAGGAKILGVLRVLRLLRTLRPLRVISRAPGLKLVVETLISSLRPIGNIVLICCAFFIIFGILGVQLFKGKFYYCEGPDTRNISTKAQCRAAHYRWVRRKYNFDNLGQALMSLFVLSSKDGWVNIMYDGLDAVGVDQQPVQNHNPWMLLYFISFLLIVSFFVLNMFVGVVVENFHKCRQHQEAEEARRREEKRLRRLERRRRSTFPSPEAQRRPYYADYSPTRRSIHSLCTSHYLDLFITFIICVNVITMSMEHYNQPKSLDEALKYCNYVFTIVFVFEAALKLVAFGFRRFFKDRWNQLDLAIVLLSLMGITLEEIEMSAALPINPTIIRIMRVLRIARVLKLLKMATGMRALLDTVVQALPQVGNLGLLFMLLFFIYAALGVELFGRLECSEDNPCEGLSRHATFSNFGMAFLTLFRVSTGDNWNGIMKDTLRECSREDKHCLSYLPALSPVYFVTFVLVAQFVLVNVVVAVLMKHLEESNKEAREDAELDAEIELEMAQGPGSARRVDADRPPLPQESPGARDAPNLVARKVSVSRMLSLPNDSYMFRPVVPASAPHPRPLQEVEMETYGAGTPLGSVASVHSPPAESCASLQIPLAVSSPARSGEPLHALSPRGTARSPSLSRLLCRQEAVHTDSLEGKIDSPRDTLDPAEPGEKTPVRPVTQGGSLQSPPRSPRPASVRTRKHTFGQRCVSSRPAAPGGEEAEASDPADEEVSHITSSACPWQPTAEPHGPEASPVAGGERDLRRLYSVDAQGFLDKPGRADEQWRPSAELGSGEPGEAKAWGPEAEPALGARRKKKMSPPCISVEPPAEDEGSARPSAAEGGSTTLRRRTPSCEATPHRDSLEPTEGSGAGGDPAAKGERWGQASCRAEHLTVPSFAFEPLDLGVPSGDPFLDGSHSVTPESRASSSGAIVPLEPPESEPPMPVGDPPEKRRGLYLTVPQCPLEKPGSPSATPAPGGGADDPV
T1 sequence (O95180 whole entry): as above
Chain of human neuronal calcium channel α1D and α2 subunits (Q01668 10-2161 limits assumed): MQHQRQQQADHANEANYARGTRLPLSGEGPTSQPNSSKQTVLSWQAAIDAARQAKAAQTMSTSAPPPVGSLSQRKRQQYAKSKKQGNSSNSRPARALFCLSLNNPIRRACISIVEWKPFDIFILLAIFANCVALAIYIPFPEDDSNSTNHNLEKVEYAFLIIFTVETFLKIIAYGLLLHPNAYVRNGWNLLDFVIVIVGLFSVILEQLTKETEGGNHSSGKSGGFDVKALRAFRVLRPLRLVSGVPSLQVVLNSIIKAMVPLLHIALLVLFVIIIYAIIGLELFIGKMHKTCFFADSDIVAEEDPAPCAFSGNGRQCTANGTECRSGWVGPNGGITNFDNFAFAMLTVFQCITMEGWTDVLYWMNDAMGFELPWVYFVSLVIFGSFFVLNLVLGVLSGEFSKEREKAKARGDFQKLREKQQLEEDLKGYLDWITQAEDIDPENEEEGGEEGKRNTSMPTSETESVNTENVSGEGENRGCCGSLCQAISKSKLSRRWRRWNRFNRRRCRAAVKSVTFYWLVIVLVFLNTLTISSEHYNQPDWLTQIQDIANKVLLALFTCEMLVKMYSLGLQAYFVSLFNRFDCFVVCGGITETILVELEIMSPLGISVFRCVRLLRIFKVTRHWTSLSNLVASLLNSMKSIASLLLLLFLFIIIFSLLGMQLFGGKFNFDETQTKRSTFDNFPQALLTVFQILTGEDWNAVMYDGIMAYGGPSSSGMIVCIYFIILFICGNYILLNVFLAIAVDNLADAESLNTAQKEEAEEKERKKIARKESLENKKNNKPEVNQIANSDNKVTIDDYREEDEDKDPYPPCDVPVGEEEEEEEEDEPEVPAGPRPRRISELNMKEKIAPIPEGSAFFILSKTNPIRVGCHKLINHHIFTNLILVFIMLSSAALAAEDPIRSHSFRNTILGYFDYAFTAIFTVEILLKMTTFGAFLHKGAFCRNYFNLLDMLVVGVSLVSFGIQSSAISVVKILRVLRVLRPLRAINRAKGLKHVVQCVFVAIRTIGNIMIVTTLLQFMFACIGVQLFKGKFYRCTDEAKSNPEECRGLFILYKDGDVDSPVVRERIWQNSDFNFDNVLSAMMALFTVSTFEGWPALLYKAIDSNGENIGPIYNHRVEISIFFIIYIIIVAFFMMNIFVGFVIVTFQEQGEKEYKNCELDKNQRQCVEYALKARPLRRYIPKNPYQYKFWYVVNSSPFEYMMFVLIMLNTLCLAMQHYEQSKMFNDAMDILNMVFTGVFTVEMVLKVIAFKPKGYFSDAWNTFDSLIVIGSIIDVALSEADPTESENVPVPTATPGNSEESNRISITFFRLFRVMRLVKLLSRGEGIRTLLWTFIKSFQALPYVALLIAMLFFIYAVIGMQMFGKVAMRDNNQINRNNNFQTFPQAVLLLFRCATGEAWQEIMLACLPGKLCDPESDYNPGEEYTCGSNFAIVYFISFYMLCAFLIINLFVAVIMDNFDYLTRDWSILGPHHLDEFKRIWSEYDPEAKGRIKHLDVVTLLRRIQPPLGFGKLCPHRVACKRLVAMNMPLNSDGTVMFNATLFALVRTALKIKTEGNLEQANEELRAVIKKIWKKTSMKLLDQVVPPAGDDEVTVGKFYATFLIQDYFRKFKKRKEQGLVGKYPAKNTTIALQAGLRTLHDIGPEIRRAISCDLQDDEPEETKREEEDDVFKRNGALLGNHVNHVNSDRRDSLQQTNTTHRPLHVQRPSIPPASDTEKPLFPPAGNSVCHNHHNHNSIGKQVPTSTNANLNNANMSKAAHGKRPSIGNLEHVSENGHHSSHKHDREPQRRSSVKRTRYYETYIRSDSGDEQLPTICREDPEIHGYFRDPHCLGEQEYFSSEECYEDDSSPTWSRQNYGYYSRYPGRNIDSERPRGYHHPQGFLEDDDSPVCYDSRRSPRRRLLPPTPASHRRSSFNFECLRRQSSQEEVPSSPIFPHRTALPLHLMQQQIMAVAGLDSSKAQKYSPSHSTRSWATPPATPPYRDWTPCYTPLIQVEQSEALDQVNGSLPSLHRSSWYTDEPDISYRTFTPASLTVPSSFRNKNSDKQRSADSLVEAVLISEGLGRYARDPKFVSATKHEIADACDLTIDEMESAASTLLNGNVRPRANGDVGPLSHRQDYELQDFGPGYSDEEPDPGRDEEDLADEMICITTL

On to `COC(=O)C1=C(C)NC(C)=C([N+](=O)[O-])[C@H]1c1ccccc1C(F)(F)F` [(-)BayK-8644], for which the inhibition (in general, the share of the control response that was lost under treatment) at 1 µM in test [1] (HEK293, read-out: % Inhibition of Control Response, 1 µM, HEK293 cells, 15 mM Ba^2+, mean ± SD(n)) worked out at 0.4 ± 0.8%. Moreover, the “effect on α1H channels (in words)” value in test [1] (concentration of 1 µM) is “little effect”. In test [1] (concentration of 10 µM), the “effect on α1H-containing channels (in words)” value is given as “marked inhibition”.

On to `N=C(N)NC(=O)c1nc(Cl)c(N)nc1N` [Amiloride, amiloride], for which the “effect on α1H-mediated currents (in words)” value in test [1] is reported as “inhibited”. Moreover, the “sensitivity of α1H-1-containing calcium channels lower when expressed in HEK293 cells than when expressed in Xenopus oöcytes” value in test [1] is “about 10 fold”. Also, the IC50 (commonly the concentration that gives 50% inhibition) in test [1] (HEK293 cells, charge carrier 15 mM Ba^2+, sigmoidal curve fitting) was 167 µM; in test [4], approximately 50 µM. The nH in test [2] came to 0.62. Besides, in test [3], the “reduction of the T-type current” value is 40%.

`COC(=O)C1=C(C)NC(C)=C([N+](=O)[O-])C1c1ccccc1C(F)(F)F` (centres unmarked) [Bay K 8644]: the “response of barium currents (in words)” value in test [5] is reported as “little or no response”. Moreover, the “sensitivity of inward barium currents (in words)” value in test [6] was “insensitive”.

For the compound `[Cd+2]` [Cd^2+], in test [1], the 50% inhibitory concentration (IC50) worked out at 104 µM and the “sensitivity of α1H-1-containing calcium channels lower when expressed in HEK293 cells than when expressed in Xenopus oöcytes” value is listed as “about 10 fold”. Also, the IC50 in test [2] (Xenopus oöcytes) is 8.3 µM and 10.3 µM.

On to `CCC1(C)CC(=O)NC1=O` (centres unmarked) [Ethosuximide, ethosuximide], for which the inhibition at 300 µM in test [1] (HEK293, 300 µM, HEK293 cells, 15 mM Ba^2+, mean ± SD(n), read-out: % Inhibition of Control Response) worked out at 7.2 ± 1.8%. For the same compound, in test [1] (no concentration stated), the “effect on α1H-mediated currents (in words)” value is “no effect”.

Regarding `COCC(=O)O[C@]1(CCN(C)CCCc2nc3ccccc3[nH]2)CCc2cc(F)ccc2[C@@H]1C(C)C` [Mibefradil, (IS,2S)-2-[2-[[3-(1H-benzimidazol-2-yl)propyl]methyl-amino]ethyl]-6-fluoro-1-isopropyl-1,2,3,4-tetrahydronaphthalen-2-yl methoxyacetate], the inhibition at 1 µM in test [1] (1 µM, HEK293 cells, 15 mM Ba^2+, mean ± SD(n), read-out: % Inhibition of Control Response) turned out to be 51 ± 10%. Besides, the “effect on α1H-mediated currents (in words)” value in test [1] (no concentration stated) is reported as “inhibited”. For the same compound, in test [2] (setting [7]), the nH was 0.71.

For the compound `[Ni+2]` [Ni^2+], in test [1], the half-maximal inhibitory concentration (IC50) amounted to 6.6 µM, the “effect on α1H-mediated currents (in words)” value is on record as “inhibited” and the “α1H-mediated currents more sensitive to Ni^2+ than to Cd^2+” value was determined as 16 fold. Besides, in test [2] (Xenopus oöcytes), the reversibility of antagonism entry is reported as “largely reversible” and the IC50 came out at 6.3 µM. Besides, the nH in test [2] (setting [7]) is recorded as 0.84.

For `COCCOC(=O)C1=C(C)NC(C)=C(C(=O)OC(C)C)C1c1cccc([N+](=O)[O-])c1` (centres unmarked) [Nimodipine, nimodipine], in test [1] (HEK293, 10 µM, HEK293 cells, 15 mM Ba^2+, mean ± SD(n), read-out: % Inhibition of Control Response), the inhibition at 10 µM is 43.7 ± 4.1%.
